In US7071359B1, “Neuropathy improvers containing nitrogenous compounds as the active ingredient” (Teijin Limited, priority 1999, dated 2006):
Values joined by “and” are separate entries in the source; they are usually repeats but may differ in a detail not shown here. Equal values may be shown once.

Legend:
[1] = tested on: Mouse neuroblastoma Neuro2A cells; test: Promotion activity on the neurite outgrowth (1): proportion of cells with extended neurite; type: cell-based; conditions: for Proportion of cells with neurite (%) mean value ± standard error: 10 nM
Procedure: (§1) Mouse neuroblastoma Neuro2A cells (obtained from DAINIPPON PHARMACEUTICAL CO., LTD.) were suspended with a density of 2.5×10^4 cells/mL in DMEM containing 10% FCS and 2 mM of Gln, and were plated on commercially available 24-well tissue culture plates with a quantity of 400 μL/well. After an overnight culture under the conditions where the temperature was 37° C., and the carbon dioxide content of the air was 5%, the media was exchanged to an identical media containing the test compound, and the culture was further continued for 24 hours. Then microscope photographs were taken with a 20× lens. Using the photographs, by counting the total number of cells in the field of view and the number of cells with extended neurite, the proportion of cells with extended neurite is calculated.

[2] = tested on: Mouse neuroblastoma Neuro2A cells; test: Promotion activity on the neurite outgrowth (2): length of neurite per cell; type: cell-based
Procedure: as §1
The cells used and the performed culture method were identical to those in Reference example (1). After being cultured in a media containing the test compound for 24 hours, microscope photographs were taken with a 20× lens. […] Using image processing software, the area covered by the neurites were calculated, and, since the thickness used to mark the neurite was uniform, the analysis was performed considering that the area was proportional to the length, and allowing to compute the length of neurite per cell.

[3] = tested on: Bovine cerebral capillary endothelial cells; test: Permeability through the blood brain barrier: incorporation into bovine cerebral capillary endothelial cells; type: in vitro ADME; conditions: test compound 1 μM, 15 minutes, ethanol extraction, HPLC
Procedure: Bovine cerebral capillary endothelial cells were cultured on a 100 mm diameter plate (coated with collagen I) to obtain confluency. The cells were cultured for 15 minutes in an incorporation media (141 mM NaCl, 4 mM KCl, 2 mM CaCl2, 1 mM […], 10 mM HEPES, 10 mM D-glucose) containing the test compound (1 μM), to incorporate the test compound into the cells. Then, the test compound incorporated into the cells was extracted with ethanol extraction, and quantified by HPLC. The rate of incorporation was calculated with the equation below. amount of test compound in the ethanol-extracted fraction/amount of test compound in the incorporation solution×100(%)

[4] = tested on: Wistar male rats, model for Alzheimer's disease by the continuous intracerebroventricular administration of β-amyloid proteins; test: Step-through passive avoidance test in rats given β-amyloid protein continuously into the cerebral ventricle; type: in vivo, rat; conditions: Examples 44-47, β-amyloid protein alone 300 pmol/day, continuous intracerebroventricular by osmotic pump
Excerpt: A step-through passive avoidance instrument made of two chambers separated by a guillotine door was used as the experimental apparatus. One chamber is an illuminated chamber made of transparent acrylic boards (floor: 15 cm×25 cm, height: 15 cm), the other chamber is a dark chamber made of black acryl boards (same dimensions). In addition, the floor of the dark chamber was equipped with a grid made of 4 mm diameter stainless steel pieces separated by 15 mm spacing. The grid was connected to an apparatus for delivering electric shocks (shock generator scrambler).
First, the guillotine door was opened for one minute to let a rat freely explore the interior of the apparatus. Then, for acquisition trials, the door was closed and the rat was put into the illuminated chamber. 30 seconds later, the door was opened and immediately after the four legs of the rat were put inside the dark chamber, the door was closed and an electric shock was delivered. The strength of the electric shock was 0.5 mA for 5 seconds. The training was repeated until the rat remained in the illuminated chamber for more than 120 seconds when the rat was placed in the illuminated chamber immediately after the electric shock and the door was opened in a similar way. 24 hours after the acquisition trials, the rat was put into the illuminating chamber for retention trials, 30 seconds after, the guillotine door was opened, and the time taken for the four legs of the rat to enter the dark chamber was measured (step-through latency). The maximum observation time during retention trials was set to 300 seconds.
(§2) 7 week old Wistar male rats (weight 220 to 250 g) were used (N=5 to 10).
(§3) β-amyloid protein (1–42) was dissolved in 35% acetonitrile-0.1% trifluoroacetic acid in water, injected in a mini-osmotic pump, which had been set to deliver 300 pmol/day (volume: 230 μL, flow: 0.5 μL/hour), and connected to a dental syringe needle through a polyethylene tube. Animals in control group were connected to a pump to which β-amyloid protein (40–1) orvehicleonly was injected. […]

[5] = tested on: Wistar male rats, model for Alzheimer's disease by the continuous intracerebroventricular administration of β-amyloid proteins; test: Y-maze test (spontaneous alternation behavior test) in rats given β-amyloid protein continuously into the cerebral ventricle; type: in vivo, rat; conditions: Examples 48-51, β-amyloid protein alone 300 pmol/day, continuous intracerebroventricular by osmotic pump
Procedure: A Y-shaped maze made by connecting three arms having a length of 35 cm each, a wall height of 25 cm and a floor width of 10 cm at an angle of 120° with respect to each other. The apparatus was settled on the laboratory floor.
A rat was placed at the extremity of one of the arms, was allowed to freely explore the maze for 8 minutes, and a record was taken of the order in which the arms were explored by the rat. By calling (A) the “Total arm entries”, and among them, by calling (B) the “Number of spontaneous alternations” which is the number of cases where 3 different arms were selected in sequence, the “Percentage of spontaneous alternations” was calculated with: (B/(A−2))×100.
as §2
as §3, with “injected. After anesthetizing the rats with pentobarbital (50 mg/Kg, i.p.), an incision was performed in each of their scalps, and following the brainatlas, holes were drilled in the cranium.” for “injected.”

[6] = listed as β-amyloid protein (1-42)
[7] = listed as β-amyloid protein (1–42)

For CCCCC[C@H](O)/C=C/[C@H]1[C@H](O)CC(=O)[C@@H]1CCCCCCC(=O)O [PGE1], the “Proportion of cells with neurite (%) mean value ± standard error” value ([1]; Example 52, 24 hours) was 26.0 ± 3.0%, the “Proportion of cells with neurite (%) mean value ± standard error” value ([1]; Example 54, 24 hours) was 19.5 ± 1.9% and the “Promotion activity on the neurite outgrowth (value relative to PGE1)” value (“Promotion activity … (value relative to PGE1)” for short) ([1]; Example 56, 24 hours, 10 μM) was 1.00. The “Promotion activity … (value relative to PGE1)” value ([1]; Example 57, 24 hours, 10 μM) was 1.00, the “Promotion activity … (value relative to PGE1)” value ([1]; Example 58, 24 hours, 10 μM) was 1.00 and the “Length of neurite per single cell (pixel/cell) mean value ± standard error” value ([2]; Example 53, 24 hours, 1 nM) was 14.2 ± 1.5 pixel/cell. The “Length of neurite per single cell (pixel/cell) mean value ± standard error” value ([2]; Example 55, 24 hours, 100 nM) was 5.7 ± 1.03 pixel/cell.

In the case of CCCC[C@](C)(O)C/C=C/[C@@H]1[C@H]2CC(CCCCC(=O)O)=C[C@H]2C[C@H]1O [Test compound B], the “Promotion activity … (value relative to PGE1)” value ([1]; Example 56, 24 hours, 10 μM) is reported as 1.63, the “Promotion activity … (value relative to PGE1)” value ([1]; Example 57, 24 hours, 0.1 μM (PGE1 at 10 μM)) is reported as 1.12 and the “Rate of incorporation into bovine capillary endothelial cells (mean value of two experiments)” value ([3]; Example 61) is reported as “below detection limit”. The “Rate of incorporation into bovine capillary endothelial cells (mean value of two experiments)” value ([3]; Example 62) was “below detection limit”.

In the case of Cc1cccc(C[C@@H](O)/C=C/[C@@H]2[C@H]3CC(CCCCCN4CCCC4)=C[C@H]3C[C@H]2O)c1 [Test compound C], the “Promotion activity … (value relative to PGE1)” value ([1]; Example 56, 24 hours, 10 μM) is reported as 1.15.

For Cc1cccc(C[C@H](O)/C=C/[C@@H]2[C@H]3CC(CCCCCN(C)C)=C[C@H]3C[C@H]2O)c1 [Test compound D], the “Promotion activity … (value relative to PGE1)” value ([1]; Example 56, 24 hours, 10 μM) was 1.31.

CCCC[C@](C)(O)C/C=C/[C@@H]1[C@H]2CC(CCCCCN(C)C)=C[C@H]2C[C@H]1O [Test compound E] was tested, and the “Promotion activity … (value relative to PGE1)” value ([1]; Example 56, 24 hours, 10 μM) was 1.58.

For “β-amyloid protein(1-42): β-amyloid protein (1–42) given continuously into the cerebral ventricle by mini-osmotic pump to lower learning and memory in the rat model”, the “Time taken to move into the dark chamber during retention trials mean value ± standard error” value [4] was 140.2 ± 53.8 (n = 5) seconds and 132.8 ± 58.1 (n = 5) seconds, the “Time taken to move into the dark chamber during retention trials mean value ± standard error” value [4, 6] was 191.7 ± 49.0 s and the “Time taken to move into the dark chamber during retention trials mean value ± standard error” value [4, 7] was “a decrease in the ability of learning and memory was observed”. For the same compound, the “Occurrence of spontaneous alternation behavior mean value ± standard error” value [5, 6] was 65.6 ± 3.4% and 66.5 ± 4.7% and 59.1 ± 3.0% and the “Occurrence of spontaneous alternation behavior mean value ± standard error” value [5, 7] was “a decrease in the ability of learning and memory was observed”.
